These results are taken from PubChem BioAssay AID463204 (Broad Institute, 2010).

Each structure is given as a SMILES string. Calls of active or inactive are those of the source.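 The calls were made as follows: active = AC50 no more than ten times the top concentration tested, that is within one log above it; inconclusive = flat curve fit with activity between 30% and 70%, or invalid poor fit; inactive = AC50 beyond ten times the top tested dose.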

As usually defined, the AC50 is the concentration at which the activity in the assay is half-maximal.

The assay relates to S. cerevisiae Mot1-301 ts growth rescue, BacTiter-Glo ATP luminescence. The assay can be described thus: growth rescue of Mot1-301 ts yeast, confirmation, SUMOylation pathway inhibitor project, whole organism, S. cerevisiae, Mot1-301 ts mutant, luminescence, dose retest (AID 463204).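 Also: growth at restrictive 38.5 degrees C of Mot1-301 OY566 strain; actives raise luminescence by restoring growth of the ts mutant at high temperature.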
For `Cc1ccsc1C(=O)NCCc1ccc(S(N)(=O)=O)cc1`, the AC50 is > 42 µM (inactive).

In the case of `COc1ccc(/C=C(/C#N)S(=O)(=O)c2ccc(C)cc2)cc1`, the AC50 was > 21 µM (inactive).

For the compound `O=C(c1cc(N2C(=O)C3C4CCC(C4)C3C2=O)ccc1Cl)N1CCCCCC1` (stereo not given), the AC50 is > 42 µM (inactive).

For `Nc1ccc(S(=O)(=O)NNC(=O)C(=O)NNc2ccccc2)cc1`, the AC50 was > 42 µM (inactive).

`COc1cc(SC)ccc1C(=O)N1CCCCCC1`: the AC50 was > 42 µM (inactive).

Turning to `Cc1nn(CC(=O)Nc2ccccn2)c(C)c1[N+](=O)[O-]`, the AC50 was > 42 µM (inactive).

Regarding `CCc1ccc2nc(-c3cccc(C)c3)nc(SCC(=O)NCC3CCCO3)c2c1` (stereo not given), the AC50 was > 42 µM (inactive).

Turning to `O=C(OCCCN=C1NS(=O)(=O)c2ccccc21)c1cccs1`, the AC50 is > 42 µM (inactive).

Turning to `CC[n+]1c(/C=C/N(C)c2ccccc2)n(-c2ccccc2)c2ccc(-c3nc4ccccc4s3)cc21`, the half-maximal activity concentration (AC50) was 19.6 µM.

As to `CCN(CC)CCNc1ncnc2c1[nH]c1ccc(OC)cc12`, the AC50 is > 42 µM (inactive).

For the compound `CCN(Cc1ccccc1)Cc1ccc(OCc2ccccc2)c(OC)c1`, the AC50 is > 42 µM (inactive).

With `O=c1c2ccccc2nc(SCc2nnc(-c3ccccc3)o2)n1-c1ccc(F)cc1F`, the AC50 was > 42 µM (inactive).

As to `Cc1ccc(SCC(=O)O/N=C(\N)c2cccc([N+](=O)[O-])c2)cc1`, the AC50 is > 42 µM (inactive).

As for `Cc1cc(C)c2c(Cn3ccnc3)cc(=O)oc2c1`, the AC50 is > 42 µM (inactive).

In the case of `CCn1ncc(Br)c1C(=O)Nc1ccc(OC(F)(F)F)cc1`, the AC50 was > 42 µM (inactive).

As for `CCOc1ccc(C(=O)c2cccs2)cc1`, the AC50 is > 42 µM (inactive).

With `N#C/C(=C\c1cn(-c2ccccc2)nc1-c1cccnc1)c1nnc2n1CCCCC2`, the AC50 is > 42 µM (inactive).

With `CC1(OC(=O)C2CCCC2)C(=O)C=C2C=C(c3ccsc3)OC=C2C1=O` (stereo not given), the AC50 was > 42 µM (inactive).

With `O=C(O)CCc1ccc(-c2ccccc2)n1NC(=O)c1cccs1`, the AC50 is > 42 µM (inactive).

In the case of `CCOC(=O)c1ccccc1NC(=O)C1CC(=O)N(C2CCCCC2)C1` (stereo not given), the AC50 is > 42 µM (inactive).

With `Cc1ccc(SCCC(=O)Nc2ccc(OCc3ccccc3)cc2)cc1`, the AC50 is > 42 µM (inactive).

Regarding `O=C1CCc2cc(S(=O)(=O)N3CCC(C(=O)NC4CCCC4)CC3)ccc2N1`, the AC50 was > 42 µM (inactive).

Consider `COC(=O)[C@H](Cc1ccccc1)NC(=O)NC(C)CCc1ccccc1` (stereo not given in full), for which the AC50 is > 42 µM (inactive).

With `CC(C)(C)NC(=S)NCc1cccnc1`, the AC50 is > 42 µM (inactive).

`Cc1[nH]nc2c1C(c1cccs1)C1=C(CC(C)(C)CC1=O)N2` (stereo not given): the AC50 was > 42 µM (inactive).

As to `CN(C=O)CP(=O)(O)CN(C)C=O`, the AC50 was > 42 µM (inactive).

For `COc1ccccc1CNC(=O)[C@H](C)NC(=O)C1CCN(C(=O)[C@@H](N)CC(C)C)CC1`, the AC50 is > 42 µM (inactive).

For the compound `CCc1ccc2[nH]c(=O)c(C(c3nnnn3Cc3ccccc3)N3CCOCC3)cc2c1` (stereo not given), the AC50 was > 42 µM (inactive).

In the case of `CCCC(O)(CCC)C(=O)NNc1ccc(C)cc1`, the AC50 is > 42 µM (inactive).

With `CCCNCC(O)COc1ccccc1C(=O)CCc1ccccc1` (stereo not given), the AC50 was > 42 µM (inactive).

`COc1ccc(N2C(=O)CC(NCc3cccs3)C2=O)cc1` (stereo not given): the AC50 was > 42 µM (inactive).

Regarding `CCOc1ccc(NS(=O)(=O)c2ccc(C(=O)NCc3cccnc3)cc2)cc1`, the AC50 is > 42 µM (inactive).

On to `CCc1ccccc1NC1c2ccccc2C(=O)N1c1cccnc1` (stereo not given), for which the AC50 was > 42 µM (inactive).

Regarding `O=C(O)CCC(=O)Nc1cccc(C(=O)Nc2ccc(Br)cc2)c1`, the AC50 is > 42 µM (inactive).

Regarding `COCC(C)n1c(C)cc(C(=O)CSc2ccc(NC(C)=O)cc2)c1C` (stereo not given), the AC50 is > 42 µM (inactive).
